Read-outs that look alike come from different tables or passages of the source.
Legend:
human recombinant HDAC1 = target: T1, human recombinant HDAC1 (Homo sapiens, UniProt Q13547); test: HDAC1 enzyme activity inhibition (HDAC Fluorimetric Drug Discovery Kit); type: biochemical; conditions: read-out: HDAC1
T1 construct: purchased Enzo Life Science, Inc. BML-SE456
Outline: (§1)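 Five-fold compound dilutions incubated with […] recombinant enzyme and 10 μM fluorogenic Fluor de Lys substrate, 60 min at 30° C. Fluor de Lys Developer II then added for 30 min to generate the fluorescent read-out.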

human recombinant HDAC6 = target: T2, human recombinant HDAC6 (Homo sapiens, UniProt Q9UBN7); test: HDAC6 enzyme activity inhibition (HDAC Fluorimetric Drug Discovery Kit); type: biochemical
T2 construct: purchased Calbiochem Inc. 382180
T2 sequence (Q9UBN7 1-1215): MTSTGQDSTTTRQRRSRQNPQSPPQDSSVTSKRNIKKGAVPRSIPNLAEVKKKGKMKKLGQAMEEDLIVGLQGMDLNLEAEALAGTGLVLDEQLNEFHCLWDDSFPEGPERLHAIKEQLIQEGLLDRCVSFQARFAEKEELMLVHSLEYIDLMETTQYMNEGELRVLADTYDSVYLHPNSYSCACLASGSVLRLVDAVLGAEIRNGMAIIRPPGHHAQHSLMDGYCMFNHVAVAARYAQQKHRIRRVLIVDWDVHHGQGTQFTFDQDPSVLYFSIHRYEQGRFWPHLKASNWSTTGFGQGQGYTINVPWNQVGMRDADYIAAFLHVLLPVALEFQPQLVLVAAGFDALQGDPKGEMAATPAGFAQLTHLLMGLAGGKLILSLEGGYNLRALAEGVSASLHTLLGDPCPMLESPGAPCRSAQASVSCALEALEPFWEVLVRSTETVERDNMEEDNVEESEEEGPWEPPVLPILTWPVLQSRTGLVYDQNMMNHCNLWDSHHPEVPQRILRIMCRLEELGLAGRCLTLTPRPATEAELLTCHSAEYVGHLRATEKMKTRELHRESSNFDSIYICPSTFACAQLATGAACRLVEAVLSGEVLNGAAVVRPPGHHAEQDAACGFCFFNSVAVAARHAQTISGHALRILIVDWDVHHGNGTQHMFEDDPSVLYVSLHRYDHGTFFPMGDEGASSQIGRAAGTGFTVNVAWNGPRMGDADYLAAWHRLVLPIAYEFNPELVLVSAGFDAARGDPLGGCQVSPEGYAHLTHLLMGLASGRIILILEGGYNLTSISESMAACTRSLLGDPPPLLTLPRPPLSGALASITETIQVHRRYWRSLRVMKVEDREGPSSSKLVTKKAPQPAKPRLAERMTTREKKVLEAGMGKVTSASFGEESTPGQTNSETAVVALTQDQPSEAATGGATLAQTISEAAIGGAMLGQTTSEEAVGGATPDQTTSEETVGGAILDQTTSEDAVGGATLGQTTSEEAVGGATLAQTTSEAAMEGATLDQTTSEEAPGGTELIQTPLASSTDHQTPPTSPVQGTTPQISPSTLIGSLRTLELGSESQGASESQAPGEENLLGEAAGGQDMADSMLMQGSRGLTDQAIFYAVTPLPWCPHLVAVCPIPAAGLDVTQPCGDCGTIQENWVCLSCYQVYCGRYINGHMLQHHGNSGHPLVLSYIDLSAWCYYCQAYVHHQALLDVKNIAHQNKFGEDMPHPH
Outline: as §1

[1] = human recombinant HDAC1, IC50 calculated with GraphPad Prism
[2] = human recombinant HDAC6, IC50 calculated with GraphPad Prism
[3] = human recombinant HDAC1, Fluor de Lys substrate, 30° C. 60 minutes
[4] = human recombinant HDAC6, same protocol as HDAC1

T1 sequence (Q13547 whole entry): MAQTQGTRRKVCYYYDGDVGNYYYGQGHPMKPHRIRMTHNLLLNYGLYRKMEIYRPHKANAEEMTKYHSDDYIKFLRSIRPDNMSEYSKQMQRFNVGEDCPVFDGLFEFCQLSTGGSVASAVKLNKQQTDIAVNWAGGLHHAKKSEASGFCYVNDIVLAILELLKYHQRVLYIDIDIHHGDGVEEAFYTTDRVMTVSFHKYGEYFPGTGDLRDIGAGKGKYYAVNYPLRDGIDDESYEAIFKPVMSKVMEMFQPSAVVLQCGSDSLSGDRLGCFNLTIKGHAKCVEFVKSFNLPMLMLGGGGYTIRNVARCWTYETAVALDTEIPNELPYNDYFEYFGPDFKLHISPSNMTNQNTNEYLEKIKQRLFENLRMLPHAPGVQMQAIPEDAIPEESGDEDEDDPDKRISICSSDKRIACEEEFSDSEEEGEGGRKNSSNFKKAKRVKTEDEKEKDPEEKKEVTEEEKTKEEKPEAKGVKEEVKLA

| SMILES | IC50 (human recombinant HDAC1; [1]) [nM] | HDAC6 selectivity (fold) (human recombinant HDAC6; HDAC1 IC50 / HDAC6 IC50) | IC50 (human recombinant HDAC6; [2]) [nM] | IC50 (human recombinant HDAC1; [3]) [nM] | HDAC6 selectivity (fold) (human recombinant HDAC6; HDAC6 over HDAC1) | IC50 (human recombinant HDAC6; [4]) [nM] |
| --- | --- | --- | --- | --- | --- | --- |
| O=C(Nc1cccc(-c2cn(Cc3ccc(-c4nnc(C(F)F)o4)cn3)nn2)c1)C1CNC1 [Compound 4463, N-(3-(1-((5-(5-(difluoromethyl)-1,3,4-oxadiazol-2-yl)pyridin-2-yl)methyl)-1H-1,2,3-triazol-4-yl)phenyl)azetidin-3-carboxamide] | > 50000 | 1046 | 47.8 |  |  |  |
| CN1CCN(Cc2cccc(-c3cn(Cc4ccc(-c5nnc(C(F)F)o5)cn4)nn3)c2)CC1 [Compound 3917, 2-(difluoromethyl)-5-(6-((4-(3-((4-methylpiperazin-1-yl)methyl)phenyl)-1H-1,2,3-triazol-1-yl)methyl)pyridin-3-yl)-1,3,4-oxadiazole] | > 50000 | 1524 | 32.8 |  |  |  |
| NC1(C(=O)Nc2cccc(-c3cn(Cc4ccc(-c5nnc(C(F)F)o5)cn4)nn3)c2)CCC1 [Compound 4498, 1-amino-N-(3-(1-((5-(5-(difluoromethyl)-1,3,4-oxadiazol-2-yl)pyridin-2-yl)methyl)-1H-1,2,3-triazol-4-yl)phenyl)cyclobutan-1-carboxamide] |  |  |  | > 50000 | 1628 | 30.7 |
| CC1CCN(Cc2cccc(-c3cn(Cc4ncc(-c5nnc(C(F)F)o5)cc4F)nn3)c2)CC1 [Compound 18459] |  |  |  | > 50000 | 778 | 64.2 |
| CN1CCN(Cc2ccccc2-c2cn(Cc3ccc(-c4nnc(C(F)F)o4)cc3F)nn2)CC1 [Compound 4587, 2-(difluoromethyl)-5-(3-fluoro-4-((4-(2-((4-methylpiperazin-1-yl)methyl)phenyl)-1H-1,2,3-triazol-1-yl)methyl)phenyl)-1,3,4-oxadiazole] |  |  |  | > 50000 | 274 | 182 |
| Cc1csc(-c2cn(Cc3ccc(-c4nnc(C(F)F)o4)cc3F)nn2)n1 [Compound 17854, 2-(difluoromethyl)-5-(3-fluoro-4-((4-(4-methylthiazol-2-yl)-1H-1,2,3-triazol-1-yl)methyl)phenyl)-1,3,4-oxadiazole] |  |  |  | > 50000 | 599 | 83.4 |
| Fc1cc(-c2nnc(C(F)F)o2)ccc1Cn1cc(-c2cccc(N3C[C@@H]4C[C@H]3CN4)c2)nn1 [Compound 4316, 2-(4-((4-(3-((1S,4S)-2,5-diazabicyclo[2.2.1]heptan-2-yl)phenyl)-1H-1,2,3-triazol-1-yl)methyl)-3-fluorophenyl)-5-(difluoromethyl)-1,3,4-oxadiazole] | > 50000 | 206 | 242 |  |  |  |
| CCN1Cc2cccc(-c3cn(Cc4ccc(-c5nnc(C(F)F)o5)cc4F)nn3)c2C1 [Compound 4535, 2-(difluoromethyl)-5-(4-((4-(2-ethylisoindolin-4-yl)-1H-1,2,3-triazol-1-yl)methyl)-3-fluorophenyl)-1,3,4-oxadiazole] |  |  |  | > 50000 | 512 | 97.5 |
| Cc1cncc(-c2cn(Cc3ccc(-c4nnc(C(F)F)o4)cn3)nn2)c1 [Compound 3884, 2-(difluoromethyl)-5-(6-((4-(5-methylpyridin-3-yl)-1H-1,2,3-triazol-1-yl)methyl)pyridin-3-yl)-1,3,4-oxadiazole] | > 50000 | 1329 | 37.6 |  |  |  |
| FC(F)c1nnc(-c2ccc(Cn3cc(C4CCCCC4)nn3)nc2)o1 [Compound 3880, 2-(6-((4-cyclohexyl-1H-1,2,3-triazol-1-yl)methyl)pyridin-3-yl)-5-(difluoromethyl)-1,3,4-oxadiazole] | > 50000 | 627 | 79.7 |  |  |  |
| Fc1cc(-c2nnc(C(F)F)o2)ccc1Cn1cc(-c2cccc(C3CN(C4COC4)C3)c2)nn1 [Compound 4462, 2-(difluoromethyl)-5-(3-fluoro-4-((4-(3-(1-(oxetan-3-yl)azetidin-3-yl)phenyl)-1H-1,2,3-triazol-1-yl)methyl)phenyl)-1,3,4-oxadiazole] | > 50000 | 540 | 92.5 |  |  |  |
| Fc1ccc(N2CCN(C3COC3)CC2)cc1-c1cn(Cc2ccc(-c3nnc(C(F)F)o3)cc2)nn1 [Compound 4455, 2-(difluoromethyl)-5-(4-((4-(2-fluoro-5-(4-(oxetan-3-yl)piperazin-1-yl)phenyl)-1H-1,2,3-triazol-1-yl)methyl)phenyl)-1,3,4-oxadiazole] | > 50000 | 520 | 96.1 |  |  |  |
| Fc1cc(-c2nnc(C(F)F)o2)ccc1Cn1cc(-c2ccc(CN3CCC3)c(Cl)c2)nn1 [Compound 18712] |  |  |  | > 50000 | 1146 | 43.6 |
| CN1CCC(c2ccc(-c3cn(Cc4ncc(-c5nnc(C(F)F)o5)cc4F)nn3)cc2)CC1 [Compound 19087, 2-(difluoromethyl)-5-(5-fluoro-6-((4-(4-(1-methylpiperidin-4-yl)phenyl)-1H-1,2,3-triazol-1-yl)methyl)pyridin-3-yl)-1,3,4-oxadiazole] |  |  |  | > 50000 | 650 | 76.9 |
| FC(F)c1nnc(-c2ccc(Cn3cc(-c4ccncc4)nn3)nc2)o1 [Compound 3837, 2-(difluoromethyl)-5-(6-((4-(pyridin-4-yl)-1H-1,2,3-triazol-1-yl)methyl)pyridin-3-yl)-1,3,4-oxadiazole] | > 50000 | 965 | 51.8 |  |  |  |
| CC(C)(N)C(=O)Nc1cccc(-c2cn(Cc3ccc(-c4nnc(C(F)F)o4)cn3)nn2)c1 [Compound 4497, 2-amino-N-(3-(1-((5-(5-(difluoromethyl)-1,3,4-oxadiazol-2-yl)pyridin-2-yl)methyl)-1H-1,2,3-triazol-4-yl)phenyl)-2-methylpropanamide] | > 50000 | 3759 | 13.3 |  |  |  |
| FC(F)c1nnc(-c2ccc(Cn3cc(-c4ccc5sccc5c4)nn3)nc2)o1 [Compound 4074, 2-(6-((4-(benzo[b]thiophen-5-yl)-1H-1,2,3-triazol-1-yl)methyl)pyridin-3-yl)-5-(difluoromethyl)-1,3,4-oxadiazole] | > 50000 | 602 | 83 |  |  |  |
| CCCCc1cn(Cc2ccc(-c3nnc(C(F)F)o3)cn2)nn1 [Compound 3832, 2-(6-((4-butyl-1H-1,2,3-triazol-1-yl)methyl)pyridin-3-yl)-5-(difluoromethyl)-1,3,4-oxadiazole] | > 50000 | 263 | 190 |  |  |  |
| FC(F)c1nnc(-c2ccc(Cn3cc(-c4cccc(CN5CCC(F)(F)CC5)c4)nn3)nc2)o1 [Compound 4401, 2-(difluoromethyl)-5-(6-((4-(3-((4,4-difluoropiperidin-1-yl)methyl)phenyl)-1H-1,2,3-triazol-1-yl)methyl)pyridin-3-yl)-1,3,4-oxadiazole] | > 50000 | 1126 | 44.4 |  |  |  |
| Fc1cc(-c2nnc(C(F)F)o2)ccc1Cn1cc(-c2cccc(CN3CC(F)(F)C3)c2)nn1 [Compound 4418, 2-(4-((4-(3-((3,3-difluoroazetidin-1-yl)methyl)phenyl)-1H-1,2,3-triazol-1-yl)methyl)-3-fluorophenyl)-5-(difluoromethyl)-1,3,4-oxadiazole] | > 50000 | 837 | 59.7 |  |  |  |
| FC(F)c1nnc(-c2ccc(Cn3cc(-c4cnc5[nH]ccc5c4)nn3)cc2)o1 [Compound 4525, 2-(4-((4-(1H-pyrrolo[2,3-b]pyridin-5-yl)-1H-1,2,3-triazol-1-yl)methyl)phenyl)-5-(difluoromethyl)-1,3,4-oxadiazole] |  |  |  | > 50000 | 5681 | 8.8 |

From patent US20230257372A1 (CHONG KUN DANG PHARMACEUTICAL CORP., priority 2020, published 2023)
